Reference: patent US20110038855A1, “TRAIL AND METHODS OF MODULATING T CELL ACTIVITY AND ADAPTIVE IMMUNE RESPONSES USING TRAIL” (priority 2005, published 2011)
Peptide text beside a SMILES is read from it. * marks the point of attachment. Cbz = O=C(OCc1ccccc1)*; CH2F = FC*

B1: recombinant TRAIL (protein)
chain: PRGGRPQKVAAHITGITRRSNSALIPISKDGKTLGQKIESWESSRKGHSFLNHVLFRNGELVIEQEGLYYIYSQTYFRFQEAEDASKMVSKDKVRTKQLVQYIYKYTSYPDPIVLMKSARNSCWSRDAEYGLYSIYQGGLFELKKNDRIFVSVTNEHLMDLDQEASFFGAFLIN

What was measured:
[1] = tested on: E1B192-200-specific CD8+ T cells; assay type: cell-based, mouse; details: for secondary expansion of purified helpless CD8+ T cells (fold expansion of IFN-γ-producing E1B192-200-specific CD8+ T cells): caspase inhibitors 20 μM, 6 days after in vitro restimulation, CD4-depleted mice, FIGS. 1a, 1b
[2] = tested on: GP33-41-specific CD8+ T cells; assay type: cell-based, mouse; details: 6 days

Row | Molecule | secondary expansion of purified helpless CD8+ T cells (fold expansion of IFN-γ-producing E1B192-200-specific CD8+ T cells) [1] | secondary expansion of helpless LCMV-specific CD8+ T cells [2] | secondary expansion of helpless CD8+ T cells from TRAIL-deficient mice in presence of exogenous TRAIL ([1]; CD4-depleted TRAIL-/- mice, 6 days, FIG. 4b) | secondary expansion of helped CD8+ T cells in presence of exogenous TRAIL ([1]; intact wild type mice, 6 days, FIG. 4a)
1 | COC(=O)C[C@H](NC(=O)[C@H](C)NC(=O)[C@@H](NC(=O)OCc1ccccc1)C(C)C)C(=O)CF [zVAD-fmk, benzyloxycarbonyl-Val-Ala-Asp-fluoromethyl ketone] (Cbz-Val-Ala-Asp(OMe)-CH2F) | restored secondary expansion | restored | – | –
2 | CC(C)C(NC(=O)c1ccc2ccccc2n1)C(=O)NC(CC(=O)O)C(=O)COc1c(F)cccc1F (stereo not drawn) [qVD-OPh, quinoline-Val-Asp-CH2-difluorophenoxy] | restored secondary expansion | – | – | –
3 | B1 | – | – | failed to do so | completely inhibited secondary expansion
